The results in this text go back to patent US8207172B2 (Bayer Intellectual Property GmbH, priority 2004, dated 2012).

Each structure is given as a SMILES string. Some results are limits rather than exact numbers.

For experiment [1], the system named is A431 cells (human epidermoid carcinoma). The experiment in a line: In vitro tumor cell proliferation assay (Cell Titer-Glo luminescent cell viability), A431. The class given is cell-based. Particulars: A-431, 72 h, 72 hours of drug exposure, ATP luminescence readout, read-out: IC50, anti-proliferative activity (inhibition of cell proliferation). In outline: (§1)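 Proliferation inhibition was measured as ATP-dependent luciferase signal after cells in RPMI with 10% FBS received test compound for 72 h at 37° C. Final concentrations spanned […] to 64 pM in 0.1% DMSO; IC50 values were derived.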

Experiment [2] concerns BT474 (human breast carcinoma). Briefly: In vitro tumor cell proliferation assay (Cell Titer-Glo luminescent cell viability), BT474. Particulars: BT-474, 72 h, BT474 cells, 72 hours of drug exposure, ATP luminescence readout, read-out: IC50, anti-proliferative activity (inhibition of cell proliferation). The class given is cell-based. The gist of the method:
as §1

Regarding `OC[C@H](O)Cn1cc2c(n1)CCc1c-2sc2ncnc(Nc3ccc(F)c(Cl)c3)c12` [Example 44, (R)-3-[6-(3-Chloro-4-fluoro-phenylamino)-4,5-dihydro-10-thia-2,3,7,9-tetraaza-cyclopenta[a]fluoren-2-yl}-propane-1,2-diol], the IC50 in experiment [1] was at most 5 µM; in experiment [2], at most 1 µM.

As for `CN1CCN(CCn2cc3c(n2)CCc2c-3sc3ncnc(Nc4ccc(Cl)c(Cl)c4)c23)CC1` [Example 45, N-(3,4-dichlorophenyl)-2-[2-(4-methylpiperazin-1-yl)ethyl]-4,5-dihydro-2H-pyrimido[5′,4′:4,5]thieno[2,3-e]indazol-6-amine], the IC50 in experiment [1] was at most 5 µM; in experiment [2], at most 1 µM.

As for `CN1CCN(CCn2cc3c(n2)CCc2c-3sc3ncnc(Nc4ccc(O)c(Cl)c4)c23)CC1` [Example 46, 2-chloro-4-({2-[2-(4-methylpiperazin-1-yl)ethyl]-4,5-dihydro-2H-pyrimido[5′,4′:4,5]thieno[2,3-e]indazol-6-yl}amino)phenol], the IC50 in experiment [1] is at most 50 µM; in experiment [2] it was at most 5 µM.

Take `CN1CCN(CCn2cc3c(n2)CCc2c-3sc3ncnc(Nc4ccc(N5CCOCC5)c(Cl)c4)c23)CC1` [Example 48, N-(3-chloro-4-morpholin-4-ylphenyl)-2-[2-(4-methylpiperazin-1-yl)ethyl]-4,5-dihydro-2H-pyrimido[5′,4′:4,5]thieno[2,3-e]indazol-6-amine]: the IC50 in experiment [1] is at most 50 µM; in experiment [2] it was at most 5 µM.

In the case of `Cc1ccc(Oc2ccc(Nc3ncnc4sc5c(c34)CCc3nn(CCN4CCN(C)CC4)cc3-5)cc2C)cn1` [Example 49, N-{3-methyl-4-[(6-methylpyridin-3-yl)oxy]phenyl}-2-[2-(4-methylpiperazin-1-yl)ethyl]-4,5-dihydro-2H-pyrimido[5′,4′:4,5]thieno[2,3-e]indazol-6-amine], the figures for the IC50 in experiment [1] and in experiment [2] were at most 5 µM and at most 1 µM, respectively.

Regarding `CN1CCN(CCn2cc3c(n2)CCc2c-3sc3ncnc(Nc4ccc(Br)c(Cl)c4)c23)CC1` [Example 50, N-(4-bromo-3-chlorophenyl)-2-[2-(4-methylpiperazin-1-yl)ethyl]-4,5-dihydro-2H-pyrimido[5′,4′:4,5]thieno[2,3-e]indazol-6-amine], the IC50 in experiment [1] and in experiment [2] was at most 5 µM each time.

For `C#Cc1cccc(Nc2ncnc3sc4c(c23)CCc2nn(CCN3CCN(C)CC3)cc2-4)c1` [Example 51, N-(3-ethynylphenyl)-2-[2-(4-methylpiperazin-1-yl)ethyl]-4,5-dihydro-2H-pyrimido[5′,4′:4,5]thieno[2,3-e]indazol-6-amine], the IC50 was at most 5 µM in experiment [1] and at most 50 µM in experiment [2].

In the case of `COc1ccc(Nc2ncnc3sc4c(c23)CCc2nn(CCN3CCN(C)CC3)cc2-4)cc1Cl` [Example 52, N-(3-chloro-4-methoxyphenyl)-2-[2-(4-methylpiperazin-1-yl)ethyl]-4,5-dihydro-2H-pyrimido[5′,4′:4,5]thieno[2,3-e]indazol-6-amine], the IC50 in experiment [1] was at most 50 µM; in experiment [2], at most 5 µM.

Turning to `CN1CCN(CCn2cc3c(n2)CCc2c-3sc3ncnc(Nc4ccc(OC(F)(F)F)c(Cl)c4)c23)CC1` [Example 53, N-[3-chloro-4-(trifluoromethoxy)phenyl]-2-[2-(4-methylpiperazin-1-yl)ethyl]-4,5-dihydro-2H-pyrimido[5′,4′:4,5]thieno[2,3-e]indazol-6-amine], the IC50 in experiment [1] was at most 5 µM; in experiment [2], at most 1 µM.

On to `CN1CCN(CCn2cc3c(n2)CCc2c-3sc3ncnc(Nc4ccc(OCc5ccccc5)c(Cl)c4)c23)CC1` [Example 54, N-[4-(benzyloxy)-3-chlorophenyl]-2-[2-(4-methylpiperazin-1-yl)ethyl]-4,5-dihydro-2H-pyrimido[5′,4′:4,5]thieno[2,3-e]indazol-6-amine], for which the IC50 was at most 5 µM in experiment [1] and at most 1 µM in experiment [2].
